Laboratory results from patent EP0019223A1, “Optically active hydantoin derivatives, their synthesis, pharmaceutical formulations containing them, and intermediates” (THE WELLCOME FOUNDATION LIMITED, priority 1979, dated 1980).

How the values were obtained:
[1] = system: human platelet rich plasma; experiment: Inhibition of ADP-stimulated platelet aggregation in fresh human platelet rich plasma (Born aggregometer); type: cell-based; details: for Inhibition of platelet aggregation x PGE1: relative potency with respect to PGE1, 1 minute incubation at 37°C, ADP 2 to 5 µM; for activity (anti-platelet-aggregation) times that of PGE1: summary values given in the description
Experimental: Aggregation of platelets in […] of fresh human platelet. rich plasma (PRP) was monitored in a Born aggregometer.
The compound to be tested was added to the PRP at the desired concentration, and the resulting mixture incubated at 37°C for 1 minute after which platelet aggregation was stimulated by the addition of adenosine diphosphate (ADR) in a concentration just causing maximal aggregation (2 to 5 µM).
The anti-aggregatory effect of the compound was assessed by measuring the percentage inhibition of platelet aggregation in the presence of the compound as compared with when it was completely absent.

[2] = system: blood platelets; experiment: Aggregation tests on rabbits (combination with phosphodiesterase inhibitor); type: in vivo; details: dipyridamole combined with the (5S,3R) isomer

IC50 ([1]; inhibition of platelet aggregation, human PRP) [µg/mL] | Compound | Inhibition of platelet aggregation x PGE1 ([1]; first of two experiments) | Inhibition of platelet aggregation x PGE1 ([1]; second of two experiments) [x PGE1] | activity (anti-platelet-aggregation) times that of PGE1 [1] | anti-platelet-aggregation inhibitory effect relative to the activity of the corresponding racemate ([1]; compared with racemate of (5S,3R) and (5R,3S) isomers) | potentiation of the anti-aggregatory effect of the active compound ([1]; dipyridamole combined with the (5S,3R) isomer, human platelet rich plasma) | potentiation of the anti-aggregatory effect of the active compound [2]
 | O=C(O)CCCCCC[C@@H]1C(=O)NC(=O)N1CC[C@@H](O)C1CCCCC1 [[(5R),(3R)], (5R)-5-(6-carboxyhexyl)-1-[(3R) - 3-cyclohexyl 3-hydroxypropyl] hydantoin] | 0.05 x PGE1 | 0.04 | 0.05 times that of PGE1 |  |  | 
> 2 | O=C(O)CCCCCC[C@@H]1C(=O)NC(=O)N1CC[C@H](O)C1CCCCC1 [[(5R),(3S)], (5R)-5-(6-carboxyhexyl)-1-[(3S)-3-cyclohexyl-3-hydroxypropyl]hydantoin] | inactive |  | inactive |  |  | 
 | O=C(O)CCCCCC[C@H]1C(=O)NC(=O)N1CC[C@@H](O)C1CCCCC1 [[(5S),(3R)], (5S)-5-(6-carboxyhexyl)-1-[(3R)-3-cyclohexyl-3-hydroxypropyl] hydantoin] | 83 x PGE1 | 47 | ~40 times that of PGE1 | at least twice |  | 
 | O=C(O)CCCCCC[C@H]1C(=O)NC(=O)N1CC[C@H](O)C1CCCCC1 [[(5S),(3S)], (5S)-5-(6-carboxyhexyl)-1-[(3S)-3-cyclohexyl-3-hydroxypropyl]hydantoin] | 0.07 x PGE1 | 0.05 | 0.06 times that of PGE1 |  |  | 
 | OCCN(CCO)c1nc(N2CCCCC2)c2nc(N(CCO)CCO)nc(N3CCCCC3)c2n1 [dipyridamole, 2,2',2",2'"-(4,8-dipiperidinopy-rimido [5,4-d]pyrimidine-2,6-diyldinitrilo)tetraethanol, reference compound] |  |  |  |  | potentation of the anti-aggregatory effect | potentation of the anti-aggregatory effect
